This passage reports EC50 results from US10233195B2, “Anti-fibrotic pyridinones” (InterMune, Inc., priority 2014, dated 2019).

The subject of this experiment is TGF-b induced Endothelin-1 production. Briefly: ET-1 assay: inhibitory effect on TGF-b induced endothelin-1 production. Type of experiment: cell-based. The following applies: Homo sapiens, Fibroblast; fibroblasts, stimulant (TGFb, serum, LPA etc), ET-1 in media by ELISA, 4-parameter fit. The procedure, abridged: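 Fibroblasts (primary human lung/dermal, HFL-1, 3T3) serum-starved 0-48 h, preincubated ~30 min with compound, then stimulated (TGFb, serum or LPA) for 16-48 h. Secreted ET-1 measured by ELISA; EC50 from 4-parameter logistic fit, with CC50 from ATPlite in the same wells.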

Bounds are passed on as bounds.

Turning to `O=c1cc(NCc2ncccn2)ccn1-c1ccc(OC(F)(F)F)cc1` [Compound 546], the EC50 was > 200 µM. `O=c1ccc(C2CCCC2)cn1-c1ccccc1` [Compound 64] yielded an EC50 of 50 to 200 µM. As to `O=c1ccc2c(n1-c1ccccc1)CCC2` [Compound 27], the 50% effective concentration (EC50) is > 200 µM.

With `O=c1ccc(-c2cncnc2)cn1-c1ccc(F)cc1` [Compound 344], the EC50 was > 200 µM. As for `Cn1cc(-c2cn(-c3ccc(OC(F)(F)F)cc3)c(=O)cc2OCCN2CCCC2)cn1` [Compound 145], the concentration for a half-maximal effect (EC50) was in the range of 50 to 200 µM.

For `COc1cc(=O)n(-c2ccc(OC(F)(F)F)cc2)cc1-c1ccc(F)cc1` [Compound 85], the EC50 is > 200 µM. Regarding `NS(=O)(=O)c1ccc(-c2ccc(=O)n(-c3ccc(Cl)cc3)c2)cc1` [Compound 327], the EC50 was > 200 µM.

With `Cc1cc(=O)n(-c2cccc(OC(F)(F)F)c2)cc1-c1cnn(C)c1` [Compound 227], the EC50 is > 200 µM. Take `O=c1ncc(-c2ccnnc2)cn1-c1ccc(OC(F)(F)F)cc1` [Compound 347]: the half-maximal effective concentration (EC50) fell in the range of 50 to 200 µM. For `CC(C)OC(=O)Nc1cc(=O)n(-c2ccc(OC(F)(F)F)cc2)cc1-c1ccc(F)cc1` [Compound 112], the concentration for a half-maximal effect (EC50) is > 200 µM. In turn, `O=c1ccc(-c2ccc(F)cc2)cn1CCc1ccccc1` [Compound 77] came in with an EC50 of 50 to 200 µM. For `Cn1cc(-c2cn(-c3ccc(OC(F)(F)F)cc3)c(=O)c3cc[nH]c23)cn1` [Compound 695], the EC50 is < 50 µM.

Regarding `O=C1Cc2ccccc2N1c1ccc(OC(F)(F)F)cc1` [Compound 81], the half-maximal effective concentration (EC50) is 50 to 200 µM.

Consider `CC(C)OC(=O)Nc1cc(=O)n(-c2ccc(OC(F)(F)F)cc2)cc1-c1cnn(C)c1` [Compound 139], for which the concentration for a half-maximal effect (EC50) was > 200 µM.

With `Cn1cc(-c2cn(-c3ccc(OC(F)(F)F)cc3)c(=O)c3nn(CCF)nc23)cn1` [Compound 679], the concentration giving a half-maximal response (EC50) was < 50 µM.

In turn, `Cc1cc(=O)n(-c2ccccc2F)cc1-c1ccc(F)cc1` [Compound 178] returned a concentration giving a half-maximal response (EC50) of 50 to 200 µM.

For `COC(=O)Nc1cc(=O)n(-c2ccc(OC(F)(F)F)cc2)cc1-c1cnn(C)c1` [Compound 138], the concentration for a half-maximal effect (EC50) was > 200 µM. Regarding `COc1cccc(-n2cc(-c3ccc(S(N)(=O)=O)cc3)ccc2=O)c1` [Compound 331], the EC50 is > 200 µM. Turning to `COc1ccc(-n2cc(-c3cccc(Cl)c3)ccc2=O)cc1` [Compound 315], the 50% effective concentration (EC50) was < 50 µM. As for `COc1ccc(-n2cc(-c3ccc(S(N)(=O)=O)cc3)ccc2=O)cc1` [Compound 328], the figure is > 200 µM; as for `CCOc1ccc(-n2cc(-c3cnn(C)c3)c(NCc3cc(F)cc(F)c3)cc2=O)c(C)c1` [Compound 703], < 50 µM. As to `Cc1cc(=O)n(-c2ccc(OC(F)(F)F)cc2)cc1-n1ccnc1` [Compound 244], the concentration giving a half-maximal response (EC50) was > 200 µM.

As to `CCn1ccc2c(-c3cnn(C)c3)c[nH]c(=O)c21` [Compound 611], the concentration for a half-maximal effect (EC50) is < 50 µM. `Cc1cc(=O)n(-c2ccc(OC(F)(F)F)cc2)cc1-c1ccccc1F` [Compound 194]: the concentration giving a half-maximal response (EC50) is < 50 µM. In the case of `Cn1cc(-c2c[nH]c(=O)c3[nH]nnc23)cn1` [Compound 623], the concentration giving a half-maximal response (EC50) was > 200 µM. In the case of `CCOc1ccc(-n2cc(-c3ccccc3)ccc2=O)c(C)c1` [Compound 298], the EC50 is 50 to 200 µM. `CCc1cc(=O)n(-c2ccc(OC(F)(F)F)cc2)cc1-c1cnn(C)c1` [Compound 235] showed an EC50 of 50 to 200 µM. Take `Cc1cc(=O)n(-c2ccc(OC(F)(F)F)cc2)cc1-c1cccc2[nH]c(=O)oc12` [Compound 555]: the EC50 is > 200 µM. For `O=c1c2[nH]nnc2c(-c2cn[nH]c2)cn1-c1ccc(OC(F)(F)F)cc1` [Compound 678], the EC50 lay within 50 to 200 µM. Turning to `Cc1cc(=O)n(-c2ccc(Cl)cc2)cc1-c1ccc2scnc2c1` [Compound 421], the EC50 is 50 to 200 µM. For `Cc1nc2c(-c3cn[nH]c3)cn(-c3ccc(OC(F)(F)F)cc3)c(=O)c2s1` [Compound 587], the concentration giving a half-maximal response (EC50) is < 50 µM.

Regarding `Cn1cc(-c2cn(-c3ccc(OC(F)(F)F)cc3)c(=O)cc2Oc2ccc(Cl)cc2)cn1` [Compound 412], the EC50 is > 200 µM.

For orientation: EC50 means the concentration at which the effect is half-maximal. Read a high EC50 as a need for much substance.
